We go through 42 compounds from BindingDB's records for patent US20240018157 (Schrödinger, 2024).

Assay [1] concerns the target T1, Mucosa-associated lymphoid tissue lymphoma translocation protein 1 (Homo sapiens, UniProt Q9UDY8).
T1 sequence (Q9UDY8 whole entry): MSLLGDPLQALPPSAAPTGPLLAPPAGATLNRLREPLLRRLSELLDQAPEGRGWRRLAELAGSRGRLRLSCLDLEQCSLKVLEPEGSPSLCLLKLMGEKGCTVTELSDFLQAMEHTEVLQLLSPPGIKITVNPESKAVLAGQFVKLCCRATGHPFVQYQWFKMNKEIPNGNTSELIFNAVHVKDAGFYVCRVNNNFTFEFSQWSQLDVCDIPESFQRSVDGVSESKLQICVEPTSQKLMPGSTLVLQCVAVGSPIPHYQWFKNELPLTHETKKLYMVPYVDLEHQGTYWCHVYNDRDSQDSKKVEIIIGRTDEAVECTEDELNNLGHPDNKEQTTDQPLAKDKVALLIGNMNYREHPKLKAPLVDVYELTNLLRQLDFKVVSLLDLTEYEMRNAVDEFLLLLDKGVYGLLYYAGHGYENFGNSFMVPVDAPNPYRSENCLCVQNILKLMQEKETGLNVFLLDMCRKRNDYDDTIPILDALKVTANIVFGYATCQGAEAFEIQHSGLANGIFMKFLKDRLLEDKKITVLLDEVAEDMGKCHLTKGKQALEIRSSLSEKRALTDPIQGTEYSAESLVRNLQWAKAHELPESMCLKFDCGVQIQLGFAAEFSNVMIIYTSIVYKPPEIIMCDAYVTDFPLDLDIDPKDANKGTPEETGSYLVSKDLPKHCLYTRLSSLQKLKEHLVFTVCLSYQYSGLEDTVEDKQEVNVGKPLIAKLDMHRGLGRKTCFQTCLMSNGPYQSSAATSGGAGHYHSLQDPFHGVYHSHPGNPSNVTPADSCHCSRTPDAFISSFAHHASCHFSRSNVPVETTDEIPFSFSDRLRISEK
The assay can be described thus: MALT1 Protease Assay 1. On the procedure:
The final assay buffer includes 2 nM of MALT1 full-length protein, 50 μM Ac-LRSR-AMC substrate, 50 mM Tris pH 7.5, 600 mM Sodium Citrate, 1 mM DTT, 1 mM EDTA, and 0.05% BSA in 384-well plate format using black microtiter square well plates (Optiplate 384-F, Perkin Elmer). Test compounds were dissolved in 100% DMSO at stock of 10 mM, with final DMSO concentration 0.1%. Test compounds were pre-incubated with MALT1 protein for 2 h at room temperature. Substrate was added after the pre-incubation and fluorescence signal was measured using Envision at excitation 355 nm and emission 460 nm after 8 hr incubation at RT. Increase in the assay signal was linear over this period and proportional with increase in the enzyme content.

In assay [2] the target is T1, Mucosa-associated lymphoid tissue lymphoma translocation protein 1. The assay can be described thus: MALT1 Protease Assay 2. The procedure:
Test compounds were dissolved in 100% DMSO at stock of 10 mM, with final DMSO concentration 0.1%. Test compounds were pre-incubated with MALT1 protein for 2 h at room temperature.

As a reminder, the IC50 is the concentration that gives 50% inhibition. High values mean weaker potency in that assay, low ones greater potency in that assay.

In assay [1], `O=C(Nc1cnc(-n2nccn2)c(Cl)c1)N1CC(C(F)(F)F)c2c1cnc1cc(Cl)nn21` (configuration not stated) [US20240018157, Example 2] came in with an IC50 below 10 nM.

The compound `C[C@]1(C2CC2)CN(C(=O)Nc2cnc(-n3nccn3)c(Cl)c2)c2cnc3cc(Cl)nn3c21` [US20240018157, Example 3] returned a concentration for half-maximal inhibition (IC50) in assay [1] of 10 to 100 nM.

For the compound `C[C@@H]1CCN(C(=O)Nc2cnc(-n3nccn3)c(Cl)c2)c2cnc3cc(Cl)nn3c21` [US20240018157, Example 5], the IC50 in assay [1] is below 10 nM.

In the case of `C[C@H]1CCN(C(=O)Nc2cnc(-n3nccn3)c(Cl)c2)c2cnc3cc(Cl)nn3c21` [US20240018157, Example 6], the IC50 in assay [1] fell in the range of 10 to 100 nM.

For `CC1(C)CCN(C(=O)Nc2cnc(-n3nccn3)c(Cl)c2)c2cnc3cc(Cl)nn3c21` [US20240018157, Example 7], the concentration for half-maximal inhibition (IC50) in assay [1] was below 10 nM.

`Cc1cc2ncc3c(n2n1)C(C(F)(F)F)CCN3C(=O)Nc1cnc(-n2nccn2)c(Cl)c1` (configuration not stated) [US20240018157, Example 10]: in assay [1], the IC50 was below 10 nM.

As for `CC1(C)c2c(cnc3cc(Cl)nn23)N(C(=O)Nc2cnc(-n3nccn3)c(Cl)c2)C[C@@H]1O` [US20240018157, Example 11], the IC50 in assay [1] fell in the range of 10 to 100 nM.

In assay [1], `CC1(C)c2c(cnc3cc(Cl)nn23)N(C(=O)Nc2cnc(-n3nccn3)c(Cl)c2)C[C@H]1O` [US20240018157, Example 12] had an IC50 below 10 nM.

For `CO[C@H]1CN(C(=O)Nc2cnc(-n3nccn3)c(Cl)c2)c2cnc3cc(Cl)nn3c2C1(C)C` [US20240018157, Example 13], in assay [1], the IC50 fell in the range of 10 to 100 nM.

`CO[C@@H]1CN(C(=O)Nc2cnc(-n3nccn3)c(Cl)c2)c2cnc3cc(Cl)nn3c2C1(C)C` [US20240018157, Example 14] yielded an IC50 in assay [1] of 100 to 1000 nM.

In turn, `C[C@]1(C(F)(F)F)CN(C(=O)Nc2cnc(-n3nccn3)c(Cl)c2)c2cnc3cc(Cl)nn3c21` [US20240018157, Example 15] came in with a half-maximal inhibitory concentration (IC50) in assay [1] of 10 to 100 nM.

The compound `C[C@@]1(C(F)(F)F)CN(C(=O)Nc2cnc(-n3nccn3)c(Cl)c2)c2cnc3cc(Cl)nn3c21` [US20240018157, Example 16] had an IC50 in assay [1] below 10 nM.

`COc1ccc(NC(=O)N2C[C@@](C)(C(F)(F)F)c3c2cnc2cc(Cl)nn32)cc1Cl` [US20240018157, Example 19] gave an IC50 in assay [1] below 10 nM.

Consider `Cc1cc(NC(=O)N2C[C@@](C)(C(F)(F)F)c3c2cnc2cc(Cl)nn32)cnc1-n1nccn1` [US20240018157, Example 21], for which the IC50 in assay [1] is below 10 nM.

In turn, `Cn1ccc(-c2ncc(NC(=O)N3C[C@@](C)(C(F)(F)F)c4c3cnc3cc(Cl)nn43)cc2Cl)n1` [US20240018157, Example 25] yielded a concentration for half-maximal inhibition (IC50) in assay [1] below 10 nM.

In turn, `C[C@@]1(C(F)(F)F)CN(C(=O)Nc2cnc(-n3cccn3)c(Cl)c2)c2cnc3cc(Cl)nn3c21` [US20240018157, Example 26] gave an IC50 in assay [1] below 10 nM.

In assay [1], `Cc1cc2ncc3c(n2n1)[C@@](C)(C(F)(F)F)CN3C(=O)Nc1cnc(-n2nccn2)c(Cl)c1` [US20240018157, Example 31] showed an IC50 of 10 to 100 nM.

In turn, `C[C@@]1(C(F)(F)F)CN(C(=O)Nc2cnc([C@@H]3CCCO3)c(Cl)c2)c2cnc3cc(Cl)nn3c21` [US20240018157, Example 33] displayed an IC50 in assay [1] of 10 to 100 nM.

For `C[C@@]1(C(F)(F)F)CN(C(=O)Nc2cnc([C@H]3CCCO3)c(Cl)c2)c2cnc3cc(Cl)nn3c21` [US20240018157, Example 34], the half-inhibitory concentration (IC50) in assay [1] is below 10 nM.

For the compound `C[C@]1(C(F)(F)F)CN(C(=O)Nc2cnc(-n3nccn3)c(Cl)c2)c2cnc3cc(F)nn3c21` [US20240018157, Example 38], the IC50 in assay [1] lay within 10 to 100 nM.

`C[C@@]1(C(F)(F)F)CN(C(=O)Nc2cc(Cl)c(C(=O)O)c(O[C@H]3CCNC3)n2)c2cnc3cc(Cl)nn3c21` [US20240018157, Example 185]: the concentration for half-maximal inhibition (IC50) in assay [2] is above 1000 nM.

In the case of `CNc1cc(NC(=O)N2C[C@@](C)(C(F)(F)F)c3c2cnc2cc(Cl)nn32)ncc1-n1nccn1` [US20240018157, Example 186], in assay [2], the half-inhibitory concentration (IC50) was above 1000 nM.

In the case of `CNc1cc(NC(=O)N2C[C@@](C)(C(F)(F)F)c3c2cnc2cc(Cl)nn32)cnc1-n1ccnn1` [US20240018157, Example 187], the IC50 in assay [2] was above 1000 nM.

On to `C[C@]1(C(F)(F)F)CN(C(=O)Nc2cnnc(C(F)F)c2)c2cnc3cc(C#N)nn3c21` [US20240018157, Example 189], for which the IC50 in assay [2] was 100 to 1000 nM.

As for `C[C@@]1(C(F)(F)F)CN(C(=O)Nc2cnnc(C(F)F)c2)c2cnc3cc(C#N)nn3c21` [US20240018157, Example 190], the IC50 in assay [2] was above 1000 nM.

As for `CC(O)c1cnn(-c2ncc(NC(=O)N3C[C@@](C)(C(F)(F)F)c4c3cnc3cc(F)nn43)cc2C(F)F)n1` (some centres not stated) [US20240018157, Example 191], in assay [2], the half-maximal inhibitory concentration (IC50) was below 10 nM.

In assay [2], `CNc1nc(NC(=O)N2C[C@@](C)(C(F)(F)F)c3c2cnc2cc(Cl)nn32)ccc1-n1nccn1` [US20240018157, Example 192] yielded an IC50 above 1000 nM.

For the compound `CCc1cc2ncc3c(n2n1)[C@@](C)(C(F)(F)F)CN3C(=O)Nc1cnnc(C(F)F)c1` [US20240018157, Example 194], the IC50 in assay [2] was above 1000 nM.

Consider `CCc1cc2ncc3c(n2n1)[C@](C)(C(F)(F)F)CN3C(=O)Nc1cnnc(C(F)F)c1` [US20240018157, Example 195], for which, in assay [2], the IC50 fell in the range of 10 to 100 nM.

In assay [2], `C[C@]1(C(F)(F)F)CN(C(=O)Nc2cnnc(C(F)F)c2)c2cnc3cc(CC(F)(F)F)nn3c21` [US20240018157, Example 196] displayed an IC50 above 1000 nM.

Compound `C[C@@]1(C(F)(F)F)CN(C(=O)Nc2cnnc(C(F)F)c2)c2cnc3cc(CC(F)(F)F)nn3c21` [US20240018157, Example 197] showed an IC50 in assay [2] above 1000 nM.

`C[C@]1(C(F)(F)F)CN(C(=O)Nc2cnnc(C(F)F)c2)c2cnc3cc(OC(F)F)nn3c21` [US20240018157, Example 199] showed an IC50 in assay [2] above 1000 nM.

On to `C[C@@]1(C(F)(F)F)CN(C(=O)Nc2cnnc(C(F)F)c2)c2cnc3cc(OC(F)F)nn3c21` [US20240018157, Example 200], for which the concentration for half-maximal inhibition (IC50) in assay [2] was above 1000 nM.

`O=C(Nc1cnc(-n2nccn2)c(Cl)c1)N1CC(O)(C(F)(F)F)c2c1cnc1cc(Cl)nn21` (configuration not stated) [US20240018157, Example 201] registered an IC50 in assay [2] below 10 nM.

`C[C@]1(C(F)F)CN(C(=O)Nc2cnc(OC(F)F)c(Cl)c2)c2cnc3cc(Cl)nn3c21` [US20240018157, Example 204] gave a concentration for half-maximal inhibition (IC50) in assay [2] of 10 to 100 nM.

With `C[C@@]1(C(F)F)CN(C(=O)Nc2cnc(OC(F)F)c(Cl)c2)c2cnc3cc(Cl)nn3c21` [US20240018157, Example 205], in assay [2], the half-inhibitory concentration (IC50) was below 10 nM.

`Cc1cn2ncc3c(c2n1)C(C)(C)CN3C(=O)Nc1cnc(C(=O)N(C)C)c(Cl)c1` [US20240018157, Example 206] yielded a concentration for half-maximal inhibition (IC50) in assay [2] above 1000 nM.

Take `COC1CN(C(=O)c2ncc(NC(=O)N3CC(C)(C)c4c3cnn3cc(C)nc43)cc2Cl)C1` [US20240018157, Example 207]: the half-maximal inhibitory concentration (IC50) in assay [2] was above 1000 nM.

The compound `Cc1cn2ncc3c(c2n1)C(C)(C)CN3C(=O)Nc1cnc(C(=O)N2CC(O)C2)c(Cl)c1` [US20240018157, Example 208] yielded an IC50 in assay [2] above 1000 nM.

In assay [2], `C[C@@]1(C(F)(F)F)CN(C(=O)Nc2cnc(C3COC3)c(Cl)c2)c2cnc3cc(Cl)nn3c21` [US20240018157, Example 209] came in with a half-maximal inhibitory concentration (IC50) above 1000 nM.

Regarding `Cn1cc([C@]2(C(F)(F)F)CN(C(=O)Nc3cnnc(C(F)F)c3)c3cnc4cc(Cl)nn4c32)cn1` [US20240018157, Example 210], the half-maximal inhibitory concentration (IC50) in assay [2] was above 1000 nM.

`Cn1cc([C@@]2(C(F)(F)F)CN(C(=O)Nc3cnnc(C(F)F)c3)c3cnc4cc(Cl)nn4c32)cn1` [US20240018157, Example 211] returned a concentration for half-maximal inhibition (IC50) in assay [2] of 10 to 100 nM.
